Here are results for one molecule from patent US20220062299A1, “USE OF GLUCOCORTICOID STEROIDS IN PREVENTING AND TREATING CONDITIONS OF MUSCLE WASTING, AGING AND METABOLIC DISORDER” (NORTHWESTERN UNIVERSITY, priority 2018, published 2022).

The test system of this data set is Dysf-null mice. Description: Dosing of metabolic and endocrine biomarkers in blood, serum and tissues, Dysf-null mice, 32 weeks weekly prednisone. Format: in vivo. As for the experimental part: Animal handling and steroid regimens. Mice were housed in a pathogen-free dedicated vivarium in accordance with Institutional Animal Care and Use Committee (IACUC) guidelines. Euthanasia was performed through carbon dioxide inhalation followed by cervical dislocation and heart removal. All methods using living animals in this study were performed in ethical accordance with the American Veterinary Medical Association (AVMA) and under protocols fully approved by both the Institutional Animal Care and Use Committee (IACUC) at Northwestern University Feinberg School of Medicine (protocol number ISO00000761). Consistent with the ethical approvals, all efforts were made to minimize suffering. Mice were fed ad libitum with Mouse Breeder Sterilizable Diet (#7904; Harlan Teklad, Indianapolis, Ind.) and maintained on a 12-hour light/dark cycle. mdx mice from the DBA/2J background were obtained from the Jackson Laboratory (Bar Harbor, Me.; stock #013141) and interbred. Male mice were used for reported experiments. Age at start was approximately 6 months for short-term experiments, approximately 6 weeks for long-term experiments. Dysferlin-null (Dysf-null) mice from the 129T2/SvEmsJ background were previously characterized (Demonbreun et al., 2011; Demonbreun et al., 2014). Age at start was approximately 9 months for long-term experiments. For experiments with Dysf-null and wildtype mice, both females and males (approximately 1:1 ratio) were randomized in treatment groups. […] Dosing was based on weekly weight measurements (1 mg/kg body weight, (Sali et al., 2012)) in 100 μl total PBS volume per dose. […] On injection days, stock solutions stored at −20° C. were diluted into sterile Eppendorf tubes containing sterile phosphate buffered saline (PBS) (#14190; Thermo Fisher, Waltham, Mass.). Puromycin (cat #A1113803, Thermo Scientific, Waltham, Mass.) was administered i.p. as 0.040 μmol/body g, and tissues were snap-frozen 30 minutes after injection. Sterile BD Micro-Fine IV Insulin Syringes (#14-829-1A; Fisher Scientific, Waltham, Mass.) were used to inject the intraperitoneal cavity of non-sedated animals. All animal analyses both during treatment and at endpoint were conducted blinded to treatment groups.
Dosing of metabolic and endocrine biomarkers. Glycogen was quantitated using the Glycogen Assay Kit (#ab65620; Abcam, Cambridge, Mass.) from approximately 25 mg frozen-pulverized whole tissue, following manufacturer's instructions and internal standards for calculating μg/mg values. For measurement of whole-tissue ATP/NAD^+ levels, approximately 25 mg frozen-pulverized tissue was extracted in 10% perchloric acid and neutralized in 0.75 M K2CO3, as previously described (Ramsey et al., 2009). NAD+ and ATP were measured by high-pressure liquid chromatography (HPLC) with Shimadzu LC-20A pump (Shimadzu Scientific Instr Inc, Addison, Ill.) and UV-VIS detector, using a Supelco LC-18-T column (15 cm×[…]; #58970-U; Millipore-Sigma, St Louis, Mo.). […] Corticosterone was measured in mouse serum and cortisol was measured in human serum using dedicated ELISA kits (#ADI-900-097, Enzo Life Science, Farmingdale, N.Y.; #K7430-100, BioVision, Milpitas, Calif.) according to manufacturer's instructions and internal standards to calculate ng/ml values. Insulin levels were quantitated in mouse and human serum with species-specific ELISA kits (#10-1247-01 (mouse-specific); #10-1113-01 (human-specific); Mercodia, Uppsala, Sweden), following manufacturer's instructions and internal standards to calculate ng/ml values. Free fatty acids were quantitated using Enzychrom Free Fatty Acid Assay kit (#EFFA-100; BioAssay Systems, Hayward, Calif.), following kit's instructions and standards to calculate μM (serum) and nmol/mg (tissue) values.

Setting [1] is: weekly prednisone, mean ± s.e.m.

Regarding `C[C@]12C=CC(=O)C=C1CC[C@@H]1[C@@H]2C(=O)C[C@@]2(C)[C@H]1CC[C@]2(O)C(=O)CO` [prednisone, Prednisone], for the setting “weekly prednisone”, the “BCAA utilization in muscle” value is listed as “improved”; the “endpoint levels of ATP, NAD+, and glycogen in muscle and heart” value is “increased”. Further, the fasting glycemia (weekly prednisone 1 mg/kg i.p., mean ± s.e.m) is 109 ± 3.17 mg/dL. Besides, under setting [1], the resting lactate is recorded as 3.36 ± 0.21 mM, the “serum BCAA” value stood at 419 ± 9.95 µM, the serum corticosterone came to 143 ± 5.2 ng/mL and the serum creatine kinase turned out to be 1.31 ± 0.04 U/ml. Moreover, under setting [1], the “serum free fatty acids” value stood at 475 ± 9.18 µM; the “serum β-hydroxybutyrate” value was determined as 323 ± 9.61 µM; the “tissue BCAA, diaphragm” value is 45.4 ± 1.06 nmol/mg; the “tissue BCAA, heart” value came out at 0.91 ± 0.03 nmol/mg. For the same molecule, under setting [1], the “tissue BCAA, omental fat” value turned out to be 24.5 ± 0.8 nmol/mg; the “tissue BCAA, quadriceps” value stood at 90.9 ± 2.58 nmol/mg; the “tissue free fatty acids, diaphragm” value amounted to 0.753 ± 0.07 nmol/mg; the “tissue free fatty acids, heart” value is given as 0.438 ± 0.05 nmol/mg. Further, under setting [1], the “tissue free fatty acids, omental fat” value was 3.49 ± 0.38 nmol/mg; the “tissue free fatty acids, quadriceps” value turned out to be 1.05 ± 0.06 nmol/mg; the “tissue β-hydroxybutyrate, diaphragm” value is 26.5 ± 2.11 nmol/mg; the “tissue β-hydroxybutyrate, heart” value is 11.9 ± 0.51 nmol/mg. Further, under setting [1], the “tissue β-hydroxybutyrate, omental fat” value came out at 30.2 ± 0.85 nmol/mg and the “tissue β-hydroxybutyrate, quadriceps” value is on record as 43.8 ± 2.23 nmol/mg.
